Assay results: US20140179518A1, “Pesticidal Mixtures Comprising Cyanosulfoximine Compounds” (BASF SE, priority 2007, published 2014)
Read-outs that look alike come from different tables or passages of the source.

Experiments:
Format in all cases: cell-based
Conditions in all cases: single active
Septoria tritici = test: Activity against leaf blotch on wheat caused by Septoria tritici (Septtr), microtiter plate
Botrytis cinerea = test: Activity against the grey mold Botrytis cinerea in the microtiterplate test (Botrci)
Phytophthora infestans = test system: Phytophthora infestans
Pyricularia oryzae = test system: Pyricularia oryzae
[1] = 4 ppm, 405 nm, 7 days after inoculation
[2] = 63 ppm, 405 nm, 7 days after inoculation

Q: How did the Observed efficacy (Septoria tritici; 0.016 ppm, 7 days) turn out when `CO/N=C(/C1=NOCCO1)c1ccccc1Oc1ncnc(Oc2ccccc2Cl)c1F` [Fluoxastrobin, (E)-{2-[6-(2-chlorophenoxy)-5-fluoropyrimidin-4-yloxy]phenyl}(5,6-dihydro-1,4,2-dioxazin-3-yl)methanone O-methyloxime] was run?
A: The Observed efficacy was 15%.

Q: What does the source list for `N#CN=S1(=O)CCCC1Cc1ccc(Cl)nc1` (centres unmarked) [C.I.5]?
A: Observed efficacy (Botrytis cinerea; 16 ppm, 7 days): 0%; Observed efficacy (Phytophthora infestans; 1 ppm, 7 days): 0%; Observed efficacy (Pyricularia oryzae; 16 ppm, 7 days): 3%; Observed efficacy (Septoria tritici; 0.25 ppm, 7 days): 0%; Observed efficacy (Septoria tritici; [1]): 2%

Q: For `N#Cc1sc2c(=O)c3ccccc3c(=O)c=2sc1C#N` [Dithianon, 5,10-dioxo-5,10-dihydronaphtho[2,3-b][1,4]dithiin-2,3-dicarbonitrile], which Observed efficacy (Botrytis cinerea; 0.25 ppm, 7 days) is on record?
A: The Observed efficacy was 12%.

Q: With `CC(C)(C)C(O)(CCc1ccc(Cl)cc1)Cn1cncn1` (centres unmarked) [Tebuconazol, 1-(4-chlorophenyl)-4,4-dimethyl-3-[1,2,4]triazol-1-ylmethylpentan-3-ol] as the compound, how does the Observed efficacy (Septoria tritici; 0.25 ppm, 7 days) read?
A: Its Observed efficacy is 67%.

Q: `Fc1ccc(Oc2ccnc3cc(Cl)cc(Cl)c23)cc1` [Quinoxyfen, 5,7-dichloro-4-(4-fluorophenoxy)quinoline] was tested. Which Observed efficacy (Pyricularia oryzae; 16 ppm, 7 days) did it give?
A: The Observed efficacy was 4%.

Q: For `CC(c1ccc(C(F)(F)F)nc1)S(C)(=O)=NC#N` (centres unmarked) [C.I.10], which Observed efficacy (Botrytis cinerea; 4 ppm, 7 days) is on record?
A: The Observed efficacy was 3%.

Q: And the Observed efficacy (Phytophthora infestans; 1 ppm, 7 days)?
A: The Observed efficacy was 0%.

Q: And the Observed efficacy (Septoria tritici; 1 ppm, 7 days)?
A: The Observed efficacy was 0%.

Q: What about the Observed efficacy (Septoria tritici; [1]) of the same compound?
A: Its Observed efficacy is 2%.

Q: `COC=C(C(=O)OC)c1ccccc1COc1cccc(C(F)(F)F)n1` [Picoxystrobin, methyl 3-methoxy-2-[2-(6-trifluoromethylpyridin-2-yloxymethyl)phenyl]acrylate] was tested. Which Observed efficacy (Septoria tritici; 0.063 ppm, 7 days) did it give?
A: The Observed efficacy was 63%.

Q: `Fc1ccc([C@]2(Cn3cncn3)O[C@H]2c2ccccc2Cl)cc1` (racemic) [Epoxiconazol, (2RS,3SR)-1-[3-(2-chlorophenyl)-2,3-epoxy-2-(4-fluorophenyl)propyl]-1H-1,2,4-triazole] was tested. Which Observed efficacy (Botrytis cinerea; 0.063 ppm, 7 days) did it give?
A: Its Observed efficacy is 3%.

Q: What about the Observed efficacy (Septoria tritici; 0.063 ppm, 7 days) of the same compound?
A: The Observed efficacy was 68%.

Q: For `CC(C)OC(=O)N[C@H](C(=O)N[C@H](C)c1nc2ccc(F)cc2s1)C(C)C` [Benthivalicarb, isopropyl {(S)-1-[(1R)-1-(6-fluorobenzothiazol-2-yl)-ethylcarbamoyl]-2-methylpropyl}carbamate], which Observed efficacy (Phytophthora infestans; 0.063 ppm, 7 days) is on record?
A: The Observed efficacy was 65%.

Q: Which results are given for `CCNC(=O)NC(=O)C(C#N)=NOC` [Cymoxanil, 1-(2-cyano-2-methoxyiminoacetyl)-3-ethylurea]?
A: Observed efficacy (Botrytis cinerea; [2]): 17%; Observed efficacy (Phytophthora infestans; 0.25 ppm, 405 nm, 7 days after inoculation): 32%; Observed efficacy (Pyricularia oryzae; [2]): 8%
